In ChEMBL document CHEMBL1275576, “In vitro activity of tomopenem (CS-023/RO4908463) against anaerobic bacteria” (Antimicrob Agents Chemother, 2009):

Key:
Lactobacillus brevis = assay: Antimicrobial activity against Lactobacillus brevis subsp. brevis JCM 1059 by agar dilution method in presence of 5% laked sheep blood; type: functional; conditions: Levilactobacillus brevis
[1] = Antimicrobial activity against Veillonella dispar ATCC 17748 by agar dilution method in presence of 5% laked sheep blood; type: functional
Bacteroides fragilis [2] = assay: Antimicrobial activity against Bacteroides fragilis ATCC 25285 by agar dilution method in presence of 5% laked sheep blood; type: functional; conditions: NCTC 9343
[3] = tested on: Lactiplantibacillus plantarum; assay: Antimicrobial activity against Lactobacillus plantarum JCM 1149 by agar dilution method in presence of 5% laked sheep blood; type: functional
Gemella morbillorum = assay: Antimicrobial activity against Gemella morbillorum ATCC 27824 by agar dilution method in presence of 5% laked sheep blood; type: functional
[4] = Antimicrobial activity against Desulfovibrio piger DSM 749 by agar dilution method in presence of 5% laked sheep blood; type: functional, Desulfovibrio piger ATCC 29098
[5] = tested on: Campylobacter ureolyticus; assay: Antimicrobial activity against Bacteroides ureolyticus NCTC 10941 by agar dilution method in presence of 5% laked sheep blood; type: functional
[6] = tested on: Bacteroides heparinolyticus; assay: Antimicrobial activity against Prevotella heparinolytica ATCC 35895 by agar dilution method in presence of 5% laked sheep blood; type: functional
[7] = tested on: Peptoniphilus asaccharolyticus; assay: Antimicrobial activity against Peptoniphilus asaccharolyticus WAL 3218 by agar dilution method in presence of 5% laked sheep blood; type: functional
[8] = Antimicrobial activity against Parabacteroides distasonis ATCC 8503 by agar dilution method in presence of 5% laked sheep blood; type: functional
Thomasclavelia ramosa = assay: Antimicrobial activity against Clostridium ramosum ATCC 25582 by agar dilution method in presence of 5% laked sheep blood; type: functional
Porphyromonas gingivalis [9] = assay: Antimicrobial activity against Porphyromonas gingivalis ATCC 33277 by agar dilution method in presence of 5% laked sheep blood; type: functional
[10] = tested on: Peptostreptococcus anaerobius; assay: Antimicrobial activity against Peptostreptococcus anaerobius ATCC 27337 by agar dilution method in presence of 5% laked sheep blood; type: functional
[11] = tested on: Enterocloster clostridioformis; assay: Antimicrobial activity against Clostridium clostridioforme NCTC 11224 by agar dilution method in presence of 5% laked sheep blood; type: functional
Hoylesella oralis = assay: Antimicrobial activity against Prevotella oralis ATCC 33269 by agar dilution method in presence of 5% laked sheep blood; type: functional
Bacteroides fragilis [12] = assay: Antimicrobial activity against Bacteroides fragilis GAI 7955 by agar dilution method in presence of 5% laked sheep blood; type: functional
Schaalia odontolytica = assay: Antimicrobial activity against Actinomyces odontolyticus GAI 91002 by agar dilution method in presence of 5% laked sheep blood; type: functional
Bacteroides ovatus = assay: Antimicrobial activity against Bacteroides ovatus ATCC 8483 by agar dilution method in presence of 5% laked sheep blood; type: functional
Fusobacterium varium [13] = assay: Antimicrobial activity against Fusobacterium varium ATCC 8501 by agar dilution method in presence of 5% laked sheep blood; type: functional
[14] = tested on: Streptococcus intermedius; assay: Antimicrobial activity against Streptococcus intermedius ATCC 27335 by agar dilution method in presence of 5% laked sheep blood; type: functional
[15] = tested on: Lactobacillus acidophilus; assay: Antimicrobial activity against Lactobacillus acidophilus JCM 1132 by agar dilution method in presence of 5% laked sheep blood; type: functional
[16] = tested on: Prevotella melaninogenica; assay: Antimicrobial activity against Prevotella melaninogenica JCM 6325 by agar dilution method in presence of 5% laked sheep blood; type: functional; conditions: ATCC 25845
Fusobacterium varium [17] = assay: Antimicrobial activity against Fusobacterium varium by agar dilution method in presence of 5% laked sheep blood; type: functional
Fusobacterium nucleatum [18] = assay: Antimicrobial activity against Fusobacterium nucleatum by agar dilution method in presence of 5% laked sheep blood; type: functional
[19] = tested on: Bacteroides thetaiotaomicron; assay: Antimicrobial activity against Bacteroides thetaiotaomicron by agar dilution method in presence of 5% laked sheep blood; type: functional
[20] = tested on: Fusobacterium necrophorum; assay: Antimicrobial activity against Fusobacterium necrophorum by agar dilution method in presence of 5% laked sheep blood; type: functional
[21] = tested on: Prevotella melaninogenica; assay: Antimicrobial activity against Prevotella melaninogenica by agar dilution method in presence of 5% laked sheep blood; type: functional
[22] = tested on: Parabacteroides distasonis; assay: Antimicrobial activity against Parabacteroides distasonis by agar dilution method in presence of 5% laked sheep blood; type: functional
Eubacterium limosum = assay: Antimicrobial activity against Eubacterium limosum by agar dilution method in presence of 5% laked sheep blood; type: functional
Parvimonas micra = assay: Antimicrobial activity against Parvimonas micra by agar dilution method in presence of 5% laked sheep blood; type: functional
[23] = tested on: Porphyromonas asaccharolytica; assay: Antimicrobial activity against Porphyromonas asaccharolyticus by agar dilution method in presence of 5% laked sheep blood; type: functional
[24] = tested on: Desulfovibrio desulfuricans; assay: Antimicrobial activity against Desulfovibrio desulfuricans by agar dilution method in presence of 5% laked sheep blood; type: functional
[25] = tested on: Peptostreptococcus anaerobius; assay: Antimicrobial activity against Peptostreptococcus anaerobius by agar dilution method in presence of 5% laked sheep blood; type: functional
Fusobacterium sp. = assay: Antimicrobial activity against Fusobacterium sp. by agar dilution method in presence of 5% laked sheep blood; type: functional
[26] = tested on: Peptoniphilus asaccharolyticus; assay: Antimicrobial activity against Peptoniphilus asaccharolyticus by agar dilution method in presence of 5% laked sheep blood; type: functional
Bacteroides uniformis = assay: Antimicrobial activity against Bacteroides uniformis by agar dilution method in presence of 5% laked sheep blood; type: functional
Clostridium perfringens = assay: Antimicrobial activity against Clostridium perfringens ATCC 13124 by agar dilution method in presence of 5% laked sheep blood; type: functional
Phocaeicola vulgatus = assay: Antimicrobial activity against Bacteroides vulgatus by agar dilution method in presence of 5% laked sheep blood; type: functional
Odoribacter splanchnicus = assay: Antimicrobial activity against Odoribacter splanchnicus by agar dilution method in presence of 5% laked sheep blood; type: functional
Bacteroides stercoris = assay: Antimicrobial activity against Bacteroides stercoris by agar dilution method in presence of 5% laked sheep blood; type: functional
Bacteroides caccae = assay: Antimicrobial activity against Bacteroides caccae by agar dilution method in presence of 5% laked sheep blood; type: functional
Finegoldia magna = assay: Antimicrobial activity against Finegoldia magna by agar dilution method in presence of 5% laked sheep blood; type: functional
Fusobacterium nucleatum [27] = assay: Antimicrobial activity against Fusobacterium nucleatum ATCC 25586 by agar dilution method in presence of 5% laked sheep blood; type: functional
Porphyromonas gingivalis [28] = assay: Antimicrobial activity against Porphyromonas gingivalis by agar dilution method in presence of 5% laked sheep blood; type: functional
Prevotella sp. = assay: Antimicrobial activity against Prevotella sp. by agar dilution method in presence of 5% laked sheep blood; type: functional

CCC[C@@H]1C[C@@H](C(=O)N[C@@H]([C@H]2O[C@H](SC)[C@H](O)[C@@H](O)[C@H]2O)[C@H](C)Cl)N(C)C1 [CLINDAMYCIN]
MIC (Lactobacillus brevis): ≤ 0.03 µg/mL
MIC [1]: ≤ 0.03 µg/mL
MIC (Bacteroides fragilis [2]): 1 µg/mL
MIC [3]: 0.25 µg/mL
MIC (Gemella morbillorum): 0.06 µg/mL
MIC [4]: 0.06 µg/mL
MIC [5]: 0.25 µg/mL
MIC [6]: ≤ 0.03 µg/mL
MIC [7]: > 128 µg/mL
MIC [8]: 0.06 µg/mL
MIC (Thomasclavelia ramosa): 8 µg/mL
MIC (Porphyromonas gingivalis [9]): ≤ 0.03 µg/mL
MIC [10]: 0.25 µg/mL
MIC [11]: 0.25 µg/mL
MIC (Hoylesella oralis): ≤ 0.03 µg/mL
MIC (Bacteroides fragilis [12]): 1 µg/mL
MIC (Schaalia odontolytica): 0.25 µg/mL
MIC (Bacteroides ovatus): 0.5 µg/mL
MIC (Fusobacterium varium [13]): 4 µg/mL
MIC [14]: 0.25 µg/mL
MIC [15]: 1 µg/mL

C[C@@H](O)[C@H]1C(=O)N2C(C(=O)O)=C(S[C@@H]3CN[C@H](CNS(N)(=O)=O)C3)[C@H](C)[C@H]12 [DORIPENEM]
MIC (Lactobacillus brevis): 0.125 µg/mL
MIC [1]: 0.06 µg/mL
MIC (Bacteroides fragilis [2]): 0.5 µg/mL
MIC [16]: 0.125 µg/mL
MIC50 (Fusobacterium varium [17]): 0.03 µg/mL
MIC90 (Fusobacterium varium [17]): 0.25 µg/mL
MIC [3]: 0.125 µg/mL
MIC50 (Fusobacterium nucleatum [18]): 0.03 µg/mL
MIC90 (Fusobacterium nucleatum [18]): 0.25 µg/mL
MIC (Gemella morbillorum): ≤ 0.015 µg/mL
MIC50 [19]: 0.5 µg/mL
MIC90 [19]: 1 µg/mL
MIC50 [20]: 0.03 µg/mL
MIC90 [20]: 0.25 µg/mL
MIC50 [21]: 0.06 µg/mL
MIC90 [21]: 0.125 µg/mL
MIC50 [22]: 0.5 µg/mL
MIC90 [22]: 4 µg/mL
MIC [4]: 0.06 µg/mL
MIC [5]: 0.06 µg/mL
MIC [6]: 0.06 µg/mL
MIC [7]: 0.03 µg/mL
MIC [8]: 0.5 µg/mL
MIC50 (Eubacterium limosum): 0.25 µg/mL
MIC90 (Eubacterium limosum): 0.25 µg/mL
MIC (Thomasclavelia ramosa): 1 µg/mL
MIC (Porphyromonas gingivalis [9]): ≤ 0.015 µg/mL
MIC50 (Parvimonas micra): 0.06 µg/mL
MIC90 (Parvimonas micra): 0.125 µg/mL
MIC [10]: 0.5 µg/mL
MIC50 [23]: 0.03 µg/mL
MIC90 [23]: 0.06 µg/mL
MIC50 [24]: 0.125 µg/mL
MIC90 [24]: 0.25 µg/mL
MIC [11]: 0.25 µg/mL
MIC (Hoylesella oralis): 0.06 µg/mL
MIC50 [25]: 0.25 µg/mL
MIC90 [25]: 2 µg/mL
MIC50 (Fusobacterium sp.): 0.03 µg/mL
MIC90 (Fusobacterium sp.): 0.25 µg/mL
MIC50 [26]: ≤ 0.015 µg/mL
MIC90 [26]: 0.125 µg/mL
MIC (Bacteroides fragilis [12]): 2 µg/mL
MIC50 (Bacteroides uniformis): 0.5 µg/mL
MIC90 (Bacteroides uniformis): 4 µg/mL
MIC (Schaalia odontolytica): 0.25 µg/mL
MIC (Bacteroides ovatus): 0.5 µg/mL
MIC (Clostridium perfringens): 0.03 µg/mL
MIC50 (Phocaeicola vulgatus): 0.5 µg/mL
MIC90 (Phocaeicola vulgatus): 4 µg/mL
MIC50 (Odoribacter splanchnicus): 0.5 µg/mL
MIC90 (Odoribacter splanchnicus): 4 µg/mL
MIC50 (Bacteroides stercoris): 0.5 µg/mL
MIC90 (Bacteroides stercoris): 4 µg/mL
MIC50 (Bacteroides caccae): 0.5 µg/mL
MIC90 (Bacteroides caccae): 4 µg/mL
MIC50 (Finegoldia magna): 0.125 µg/mL
MIC90 (Finegoldia magna): 0.25 µg/mL
MIC (Fusobacterium nucleatum [27]): 4 µg/mL
MIC (Fusobacterium varium [13]): 0.5 µg/mL
MIC [14]: 0.125 µg/mL
MIC50 (Porphyromonas gingivalis [28]): 0.03 µg/mL
MIC90 (Porphyromonas gingivalis [28]): 0.06 µg/mL
MIC50 (Prevotella sp.): 0.06 µg/mL
MIC90 (Prevotella sp.): 0.125 µg/mL
MIC [15]: 0.125 µg/mL
